Like-named read-outs stand apart in the source and are kept apart here.
How the values were obtained:
Type in all cases: cell-based
Human Nav1.8 = target: T1, Human Nav1.8 (Homo sapiens, UniProt Q9Y5Y9); assay: VIPR Assay for Nav1.8 Compounds (FRET membrane potential, deltamethrin opener)
T1 construct: expressed in transfected cells; host or cells: HEK293

[1] = system: tetrodotoxin-sensitive voltage-gated sodium channels including NaV1.2, NaV1.3 and NaV1.7; assay: TTX-S Assay (VIPR, SHSY-5Y cell line, veratridine opener); settings: read-out: TTX-S IC50, veratridine 50 μM opener, average of replicates
Human Nav1.5 = target: T2, Human Nav1.5 (Homo sapiens, UniProt Q14524); assay: Nav1.5 Assay (VIPR, HEK293 cells)
T2 construct: expressed in transfected cells; host or cells: HEK293
T2 sequence (Q14524 whole entry): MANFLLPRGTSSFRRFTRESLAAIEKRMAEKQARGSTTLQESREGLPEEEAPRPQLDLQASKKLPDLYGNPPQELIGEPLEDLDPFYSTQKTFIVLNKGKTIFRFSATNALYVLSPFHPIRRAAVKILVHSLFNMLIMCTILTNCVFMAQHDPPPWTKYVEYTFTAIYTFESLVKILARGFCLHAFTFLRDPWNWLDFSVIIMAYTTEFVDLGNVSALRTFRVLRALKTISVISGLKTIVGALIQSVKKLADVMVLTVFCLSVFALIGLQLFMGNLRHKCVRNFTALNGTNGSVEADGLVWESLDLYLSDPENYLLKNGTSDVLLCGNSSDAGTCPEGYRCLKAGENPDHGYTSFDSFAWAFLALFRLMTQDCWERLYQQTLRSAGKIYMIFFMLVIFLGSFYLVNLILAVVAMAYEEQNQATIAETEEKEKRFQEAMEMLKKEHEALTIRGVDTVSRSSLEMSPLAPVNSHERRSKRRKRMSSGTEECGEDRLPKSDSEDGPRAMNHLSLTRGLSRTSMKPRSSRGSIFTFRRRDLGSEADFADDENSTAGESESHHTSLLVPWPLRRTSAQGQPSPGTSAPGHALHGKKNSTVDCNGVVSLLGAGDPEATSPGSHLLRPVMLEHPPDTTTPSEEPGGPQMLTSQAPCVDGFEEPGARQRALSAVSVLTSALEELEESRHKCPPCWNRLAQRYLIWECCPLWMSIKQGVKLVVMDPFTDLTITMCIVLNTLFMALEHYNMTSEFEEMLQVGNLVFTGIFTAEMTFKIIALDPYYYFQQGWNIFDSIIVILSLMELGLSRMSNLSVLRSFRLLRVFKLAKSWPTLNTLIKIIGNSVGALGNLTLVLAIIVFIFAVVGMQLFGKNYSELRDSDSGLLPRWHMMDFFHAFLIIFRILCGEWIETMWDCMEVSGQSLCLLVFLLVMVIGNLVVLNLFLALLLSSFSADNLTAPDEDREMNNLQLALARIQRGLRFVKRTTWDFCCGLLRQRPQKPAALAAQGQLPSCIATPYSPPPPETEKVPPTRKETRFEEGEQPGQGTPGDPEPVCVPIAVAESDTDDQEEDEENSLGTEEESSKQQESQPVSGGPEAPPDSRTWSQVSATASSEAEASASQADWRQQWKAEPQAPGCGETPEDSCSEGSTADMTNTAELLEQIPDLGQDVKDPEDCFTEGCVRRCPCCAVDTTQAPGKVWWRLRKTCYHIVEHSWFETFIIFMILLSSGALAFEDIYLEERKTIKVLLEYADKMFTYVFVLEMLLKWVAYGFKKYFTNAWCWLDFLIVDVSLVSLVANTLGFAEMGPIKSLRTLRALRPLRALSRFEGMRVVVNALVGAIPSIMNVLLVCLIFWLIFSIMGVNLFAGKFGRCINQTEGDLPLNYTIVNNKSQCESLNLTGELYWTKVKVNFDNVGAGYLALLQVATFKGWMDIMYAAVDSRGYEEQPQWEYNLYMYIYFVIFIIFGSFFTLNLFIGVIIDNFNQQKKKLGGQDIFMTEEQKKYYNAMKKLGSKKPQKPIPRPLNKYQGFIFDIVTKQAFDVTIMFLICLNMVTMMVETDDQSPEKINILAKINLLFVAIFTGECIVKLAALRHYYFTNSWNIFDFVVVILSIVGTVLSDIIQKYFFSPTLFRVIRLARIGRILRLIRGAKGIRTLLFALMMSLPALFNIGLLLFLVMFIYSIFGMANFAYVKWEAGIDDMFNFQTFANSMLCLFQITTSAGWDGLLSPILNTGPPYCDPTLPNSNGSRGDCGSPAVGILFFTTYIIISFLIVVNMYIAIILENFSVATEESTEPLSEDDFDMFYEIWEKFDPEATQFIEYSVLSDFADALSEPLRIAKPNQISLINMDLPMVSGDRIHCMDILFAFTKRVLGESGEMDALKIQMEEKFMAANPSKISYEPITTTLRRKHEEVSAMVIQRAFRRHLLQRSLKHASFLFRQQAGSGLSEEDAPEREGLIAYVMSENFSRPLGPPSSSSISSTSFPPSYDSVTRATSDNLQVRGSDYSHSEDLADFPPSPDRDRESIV
Method: The Nav1.5 assay is performed in HEK293 cells expressing Human Nav1.5 in the same way as the Nav1.8 assay.
Where replicate experiments were conducted resulting in multiple sets of data for a test compound, the data presented represent the average value from all replicate experiments.

[2] = VIPR FRET membrane potential assay, deltamethrin opener, average of replicates, read-out: Nav1.8 IC50
[3] = HEK293 cells expressing Human Nav1.5, average of replicates, read-out: Nav1.5 IC50

T1 sequence (Q9Y5Y9 whole entry): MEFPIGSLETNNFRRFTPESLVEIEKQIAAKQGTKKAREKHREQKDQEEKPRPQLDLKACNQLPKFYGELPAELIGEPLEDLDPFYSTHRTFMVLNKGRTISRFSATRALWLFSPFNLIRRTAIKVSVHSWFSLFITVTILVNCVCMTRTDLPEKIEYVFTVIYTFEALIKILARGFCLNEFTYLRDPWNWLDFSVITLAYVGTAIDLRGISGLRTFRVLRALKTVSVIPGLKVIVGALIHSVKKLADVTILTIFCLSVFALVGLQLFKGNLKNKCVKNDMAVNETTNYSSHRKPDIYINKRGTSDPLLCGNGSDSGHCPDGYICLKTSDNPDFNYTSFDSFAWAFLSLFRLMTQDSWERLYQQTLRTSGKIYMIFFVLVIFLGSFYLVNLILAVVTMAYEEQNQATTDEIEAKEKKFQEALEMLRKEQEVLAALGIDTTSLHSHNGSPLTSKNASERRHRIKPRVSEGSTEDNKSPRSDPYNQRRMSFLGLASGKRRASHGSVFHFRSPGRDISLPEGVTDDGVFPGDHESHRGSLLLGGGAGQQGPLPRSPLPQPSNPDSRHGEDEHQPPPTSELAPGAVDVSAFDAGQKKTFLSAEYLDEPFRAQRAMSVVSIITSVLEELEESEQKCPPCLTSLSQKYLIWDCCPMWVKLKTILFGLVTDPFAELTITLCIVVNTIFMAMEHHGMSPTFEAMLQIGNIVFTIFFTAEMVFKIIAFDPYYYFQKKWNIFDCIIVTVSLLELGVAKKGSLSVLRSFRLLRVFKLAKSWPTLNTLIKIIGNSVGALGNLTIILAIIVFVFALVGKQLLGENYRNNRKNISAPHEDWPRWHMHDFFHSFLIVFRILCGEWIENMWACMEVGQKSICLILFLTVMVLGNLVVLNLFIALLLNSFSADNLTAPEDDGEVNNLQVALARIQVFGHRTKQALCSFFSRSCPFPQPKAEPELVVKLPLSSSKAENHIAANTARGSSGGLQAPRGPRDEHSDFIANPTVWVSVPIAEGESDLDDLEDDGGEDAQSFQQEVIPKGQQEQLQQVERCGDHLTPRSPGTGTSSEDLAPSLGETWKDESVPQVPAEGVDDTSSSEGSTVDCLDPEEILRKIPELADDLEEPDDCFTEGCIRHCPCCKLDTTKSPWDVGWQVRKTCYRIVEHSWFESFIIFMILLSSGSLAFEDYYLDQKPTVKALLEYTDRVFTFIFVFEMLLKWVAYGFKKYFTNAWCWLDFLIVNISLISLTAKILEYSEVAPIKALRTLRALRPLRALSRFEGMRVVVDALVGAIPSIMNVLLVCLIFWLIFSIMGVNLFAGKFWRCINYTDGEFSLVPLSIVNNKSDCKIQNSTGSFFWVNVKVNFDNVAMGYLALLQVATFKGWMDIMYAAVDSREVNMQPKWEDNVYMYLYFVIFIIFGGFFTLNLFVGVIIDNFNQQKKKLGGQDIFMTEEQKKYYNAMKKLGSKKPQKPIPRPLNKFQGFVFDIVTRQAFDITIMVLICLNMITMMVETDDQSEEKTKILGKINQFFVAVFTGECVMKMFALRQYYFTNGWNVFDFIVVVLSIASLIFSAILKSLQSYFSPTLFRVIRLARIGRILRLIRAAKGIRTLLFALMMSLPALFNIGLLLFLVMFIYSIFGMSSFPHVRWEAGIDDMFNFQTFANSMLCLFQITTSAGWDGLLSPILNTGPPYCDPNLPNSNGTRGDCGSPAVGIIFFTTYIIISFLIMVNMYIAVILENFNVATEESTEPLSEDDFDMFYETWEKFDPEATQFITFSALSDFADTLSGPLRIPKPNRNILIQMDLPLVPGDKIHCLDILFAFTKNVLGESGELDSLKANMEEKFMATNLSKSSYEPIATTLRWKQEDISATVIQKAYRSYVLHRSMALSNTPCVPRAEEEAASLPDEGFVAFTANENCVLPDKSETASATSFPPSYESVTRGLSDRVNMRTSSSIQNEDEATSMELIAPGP

Structure (SMILES) | IC50 (Human Nav1.8; [2]) | IC50 [1] | IC50 (Human Nav1.5; [3]) | IC50 (Human Nav1.8) | IC50 (Human Nav1.5)
Cn1nccc1C(=O)Nc1ccc(-c2cc(Cl)cc(Cl)c2Cl)c(N)n1 [Example 4, N-[6-Amino-5-(2,3,5-trichlorophenyl)pyridin-2-yl]-1-methyl-1H-pyrazole-5-carboxamide] | 0.68 µM |  |  |  | 
Cc1oncc1C(=O)Nc1ccc(-c2cc(Cl)ccc2Cl)c(N)n1 [Example 21, N-[6-Amino-5-(2,5-dichlorophenyl)pyridin-2-yl]-5-methylisoxazole-4-carboxamide] | 23 µM | 27 µM |  |  | 
Cc1oncc1C(=O)Nc1ccc(-c2cc(Cl)cc(Cl)c2Cl)c(N)n1 [Example 22, N-[6-Amino-5-(2,3,5-trichlorophenyl)pyridin-2-yl]-5-methylisoxazole-4-carboxamide] | 1 µM |  | 4.6 µM |  | 
Cc1nocc1C(=O)Nc1ccc(-c2cc(Cl)ccc2Cl)c(N)n1 [Example 25, N-[6-Amino-5-(2,5-dichlorophenyl)pyridin-2-yl]-3-methylisoxazole-4-carboxamide] | 1.6 µM | 10 µM |  |  | 
Cc1nocc1C(=O)Nc1ccc(-c2cc(Cl)cc(Cl)c2Cl)c(N)n1 [Example 28, N-[6-Amino-5-(2,3,5-trichlorophenyl)pyridin-2-yl]-3-methylisoxazole-4-carboxamide] | 0.67 µM |  | 9.5 µM |  | 
Cc1nonc1C(=O)Nc1ccc(-c2cc(Cl)ccc2Cl)c(N)n1 [Example 44, N-[6-Amino-5-(2,5-dichlorophenyl)pyridin-2-yl]-4-methyl-1,2,5-oxadiazole-3-carboxamide] | 3.2 µM | 8.1 µM |  |  | 
COc1ccc(Cl)c(-c2ccc(NC(=O)c3nonc3C)nc2N)c1 [Example 45, N-[6-Amino-5-(2-chloro-5-methoxyphenyl)pyridin-2-yl]-4-methyl-1,2,5-oxadiazole-3-carboxamide] | 2.6 µM | 13 µM |  |  | 
Cc1nonc1C(=O)Nc1ccc(-c2ccccc2Cl)c(N)n1 [Example 46, N-[6-Amino-5-(2-chlorophenyl)pyridin-2-yl]-4-methyl-1,2,5-oxadiazole-3-carboxamide] | 1.2 µM | 30 µM |  |  | 
Cc1nonc1C(=O)Nc1ccc(-c2ccc(Cl)cc2Cl)c(N)n1 [Example 49, N-[6-Amino-5-(2,4-dichlorophenyl)pyridin-2-yl]-4-methyl-1,2,5-oxadiazole-3-carboxamide] | 6.1 µM | 12 µM |  |  | 
COc1cc(Cl)cc(-c2ccc(NC(=O)c3nonc3C)nc2N)c1Cl [Example 51, N-[6-Amino-5-(2,5-dichloro-3-methoxyphenyl)pyridin-2-yl]-4-methyl-1,2,5-oxadiazole-3-carboxamide] | 2.6 µM | 4.5 µM |  |  | 
CC(C)n1nccc1C(=O)Nc1ccc(-c2ccccc2Cl)c(N)n1 [Example 66, N-[6-Amino-5-(2-chlorophenyl)pyridin-2-yl]-1-isopropyl-1H-pyrazole-5-carboxamide] | 2.4 µM | 11 µM |  |  | 
Nc1nc(NC(=O)c2ccon2)ccc1-c1cc(Cl)ccc1Cl [Example 72, N-[6-Amino-5-(2,5-dichlorophenyl)pyridin-2-yl]isoxazole-3-carboxamide] | 8.6 µM | 15 µM |  |  | 
Nc1nc(NC(=O)c2ccon2)ccc1-c1ccccc1Cl [Example 74, N-[6-Amino-5-(2-chlorophenyl)pyridin-2-yl]isoxazole-3-carboxamide] | 4.2 µM | 30 µM |  |  | 
CC(C)Oc1ccc(F)cc1-c1ccc(NC(=O)c2ccnn2C)nc1N [Example 109, N-[6-amino-5-(5-fluoro-2-isopropoxyphenyl)pyridin-2-yl]-1-methyl-1H-pyrazole-5-carboxamide] | 5.7 µM |  | 27 µM |  | 
CCOc1ccc(OC(F)(F)F)c(-c2ccc(NC(=O)c3ccnn3C)nc2N)c1 [Example 110, N-{6-amino-5-[5-ethoxy-2-(trifluoromethoxy)phenyl]pyridin-2-yl}-1-methyl-1H-pyrazole-5-carboxamide] | 1.5 µM |  | 2.3 µM |  | 
COc1ccc(F)cc1-c1ccc(NC(=O)c2conc2C)nc1N [Example 123] | 2.4 µM |  | > 32 µM |  | 
COc1cccc(-c2ccc(NC(=O)c3ccnn3C)nc2N)c1OC [Example 125] |  |  |  | 25 µM | > 32 µM
COCc1ccccc1-c1ccc(NC(=O)c2conc2C)nc1N [Example 129] | 3.5 µM |  | 20 µM |  | 
CCOc1ccccc1-c1ccc(NC(=O)c2ccnn2C)nc1N [Example 130] | 2.3 µM |  | 22 µM |  | 

Structure (SMILES) | IC50 (Human Nav1.8; [2]) | IC50 [1] | IC50 (Human Nav1.5; [3]) | IC50 (Human Nav1.8) | IC50 (Human Nav1.5)
CC(C)COc1ccccc1-c1ccc(NC(=O)c2ccnn2C)nc1N [Example 131] | 0.64 µM |  | 18 µM |  | 
CCOc1ccc(F)cc1-c1ccc(NC(=O)c2ccnn2C)nc1N [Example 132] | 1.5 µM |  | > 32 µM |  | 
COc1cccc(-c2ccc(NC(=O)c3conc3C)nc2N)c1OC [Example 133] | 2.9 µM |  | > 32 µM |  | 
Cc1nocc1C(=O)Nc1ccc(-c2ccccc2OCC(F)(F)F)c(N)n1 [Example 134] | 0.41 µM |  | 18 µM |  | 
CCOc1ccc(F)cc1-c1ccc(NC(=O)c2conc2C)nc1N [Example 135] | 0.28 µM |  | 26 µM |  | 
CCCOc1ccc(F)cc1-c1ccc(NC(=O)c2ccnn2C)nc1N [Example 136] | 0.6 µM |  | 27 µM |  | 
Cc1ccc(OC(F)(F)F)c(-c2ccc(NC(=O)c3ccnn3C)nc2N)c1 [Example 137] | 1.2 µM |  | 18 µM |  | 
COCc1ccc(Cl)c(-c2ccc(NC(=O)c3conc3C)nc2N)c1 [Example 138] | 1 µM |  | 23 µM |  | 
Cn1nccc1C(=O)Nc1ccc(-c2ccccc2CC(F)(F)F)c(N)n1 [Example 139] | 2.1 µM |  | 7.5 µM |  | 
COc1ccc(OC(F)(F)F)c(-c2ccc(NC(=O)c3ccnn3C)nc2N)c1 [Example 140] | 0.43 µM |  | 18 µM |  | 
COCc1ccc(Cl)c(-c2ccc(NC(=O)c3ccnn3C)nc2N)c1 [Example 141] | 5.4 µM |  | > 32 µM |  | 
COc1ccc(Cl)c(-c2ccc(NC(=O)c3ccnn3C(C)C)nc2N)c1 [Example 142] | 0.96 µM |  | 17 µM |  | 
Cn1nccc1C(=O)Nc1ccc(-c2ccccc2OCC2CC2)c(N)n1 [Example 143] | 0.97 µM |  | 24 µM |  | 
CCCCOc1ccc(F)cc1-c1ccc(NC(=O)c2ccnn2C)nc1N [Example 144] | 0.53 µM |  | 23 µM |  | 
Cc1nocc1C(=O)Nc1ccc(-c2cc(F)ccc2OC(C)C)c(N)n1 [Example 145] | 1.5 µM |  | 28 µM |  | 
Cc1nocc1C(=O)Nc1ccc(-c2ccccc2CC(F)(F)F)c(N)n1 [Example 146] |  |  | 13 µM |  | 
COCCOc1ccc(F)cc1-c1ccc(NC(=O)c2ccnn2C)nc1N [Example 147] | 12 µM |  | > 32 µM |  | 
COc1ccc(OC(F)(F)F)c(-c2ccc(NC(=O)c3conc3C)nc2N)c1 [Example 148] | 0.56 µM |  | 10 µM |  | 
COCCOc1ccccc1-c1ccc(NC(=O)c2conc2C)nc1N [Example 149] | 4 µM |  | > 32 µM |  | 

Structure (SMILES) | IC50 (Human Nav1.8; [2]) | IC50 [1] | IC50 (Human Nav1.5; [3]) | IC50 (Human Nav1.8) | IC50 (Human Nav1.5)
CCOc1ccc(Cl)c(-c2ccc(NC(=O)c3ccnn3C)nc2N)c1 [Example 150] | 2.5 µM |  | 19 µM |  | 
COCCOc1ccc(Cl)c(-c2ccc(NC(=O)c3ccnn3C)nc2N)c1 [Example 151] | 5.1 µM |  | > 32 µM |  | 
COCCCOc1ccc(F)cc1-c1ccc(NC(=O)c2conc2C)nc1N [Example 152] | 1.9 µM |  | 31 µM |  | 
COCCCOc1ccc(F)cc1-c1ccc(NC(=O)c2ccnn2C)nc1N [Example 153] |  |  | > 32 µM | 8.8 µM | 
CCOc1ccc(Cl)c(-c2ccc(NC(=O)c3conc3C)nc2N)c1 [Example 154] | 0.47 µM |  | 10 µM |  | 
COCCOc1ccccc1-c1ccc(NC(=O)c2ccnn2C)nc1N [Example 155] | 18 µM |  | > 32 µM |  | 
COCCCOc1ccccc1-c1ccc(NC(=O)c2conc2C)nc1N [Example 156] | 3.1 µM |  | 31 µM |  | 
COCCCOc1ccccc1-c1ccc(NC(=O)c2ccnn2C)nc1N [Example 157] | 9.5 µM |  | > 32 µM |  | 
COC(C)COc1ccc(F)cc1-c1ccc(NC(=O)c2ccnn2C)nc1N (stereo not shown) [Example 158] | 15 µM |  | > 32 µM |  | 
COC(C)COc1ccc(F)cc1-c1ccc(NC(=O)c2conc2C)nc1N (stereo not shown) [Example 159] | 4.7 µM |  | > 32 µM |  | 
COC(C)COc1ccccc1-c1ccc(NC(=O)c2ccnn2C)nc1N (stereo not shown) [Example 160] | 13 µM |  | > 32 µM |  | 
COC(C)COc1ccccc1-c1ccc(NC(=O)c2conc2C)nc1N (stereo not shown) [Example 161] | 6.7 µM |  | > 32 µM |  | 
CCCOc1ccc(F)cc1-c1ccc(NC(=O)c2conc2C)nc1N [Example 162] | 0.09 µM |  | 7.7 µM |  | 
Cc1nocc1C(=O)Nc1ccc(-c2cc(Cl)ccc2OCC(F)(F)F)c(N)n1 [Example 163] | 0.48 µM |  | 9.9 µM |  | 
Cc1nocc1C(=O)Nc1ccc(-c2cc(F)ccc2OC2CCOC2)c(N)n1 (stereo not shown) [Example 167] | 11 µM |  | > 32 µM |  | 
COCCOc1ccc(F)cc1-c1ccc(NC(=O)c2conc2C)nc1N [Example 169] | 4.9 µM |  | > 32 µM |  | 
COCCOc1ccc(Cl)c(-c2ccc(NC(=O)c3conc3C)nc2N)c1 [Example 170] | 0.9 µM |  | 21 µM |  | 
Cc1nocc1C(=O)Nc1ccc(-c2cc(O)cc(Cl)c2Cl)c(N)n1 [Example 176] | 1.4 µM |  | 10 µM |  | 
Cn1nccc1C(=O)Nc1ccc(-c2cc(O)cc(Cl)c2Cl)c(N)n1 [Example 177] | 1.3 µM |  | 12 µM |  | 
